Bridge positions count the residues as written; N and C are the ends. Square brackets hold non-standard residues; d marks the D form. Peptide text beside a SMILES is read from it. R8 = C=CCCCCCC[C@@](C)(N)C(=O)O; R5 = C=CCCC[C@@](C)(N)C(=O)O; S5 = C=CCCC[C@](C)(N)C(=O)O
Tests used:
[1] = target: 5HB, a recombinant protein containing 3 HR1 domains covalently attached to 2 HR2 domains; details: competition with fluorescently labeled T108 probe (2 nM), 5HB 50 nM, 10 min preincubation + 30 min room temperature, duplicates
Source text: The RSV HR2 region (residues 476 to 524) is a 49-amino-acid sequence that has been extensively characterized (Fig. 1). HR2 is a largely unstructured peptide in aqueous solution folding into an α-helix upon binding to trimeric HR1 coiled coils ([20]). […] We reduced HR2 (aa 483 to 516) into three short overlapping subdomains (subdomains 1 to 3) (Fig. 1). These peptides were scanned for various stapling combinations. […] Far-UV circular dichroism (CD) spectropolarimetry was used to investigate the effect of stapling on the α-helical content of the peptides. […] To assess the propensity of the stapled peptides to hinder the formation of the postfusion six-helix bundle required for viral cell entry, we used a 5-helix bundle (5HB) biochemical fluorescence polarization (FP) competition assay as previously described ([21], [22]).
The coding sequence of 5HB was designed as described previously and de novo synthesized by Genscript ([21]). The HR1 (aa 126 to 182) and HR2 (aa 476 to 524) coding sequences from wild-type RSV A2 strain F ([36]) were codon optimized for overexpression in Escherichia coli and cloned at NdeI/BamHI restriction sites of pET-15b to generate the expression plasmid for 5HB. The 5HB expression construct was transformed into Escherichia coli BL21(DE3). Cells were grown at 37°C to an optical density at 600 nm of 0.8 followed by induction with isopropyl-1-thio-β-D-galactopyranoside at a final concentration of 0.5 mM for 12 to 15 h. Cells were harvested by centrifugation, washed twice with PBS, and resuspended in 20 ml of PBS (pH 7.4), 500 mM NaCl, and 1% Triton X-100 supplemented with complete protease inhibitor. Cell suspensions were disrupted by sonication. Cell debris was removed through ultracentrifugation at 18,000 × g for 1 h at 4°C, and clarified cell lysate was mixed with 1 ml of nickel-nitrilotriacetic acid (Ni-NTA) agarose beads (Qiagen) preequilibrated with 20 ml of lysis buffer. The suspension was agitated for 1 h at 4°C and loaded onto a 5-ml polypropylene column (Qiagen). The column was washed twice with 8 ml of PBS (pH 7.4), 500 mM NaCl, 1% Triton X-100, and 100 mM imidazole. Proteins were eluted with 5 × 500 μl of a buffer containing PBS (pH 7.4), 300 mM imidazole, and 500 mM NaCl. The imidazole was removed by dialysis, and protein purity was assessed by SDS-polyacrylamide gel electrophoresis followed by Coomassie blue staining. Protein concentration was determined with the Qubit 2.0 Fluorometer (Life Technologies).
The T108 ([12]) peptide probe was synthesized by standard SPPS procedures using HCTU as a coupling reagent as described above. A 10-μl volume of recombinant 5HB protein in FP buffer (20 mM PBS [pH 7.4], 500 mM NaCl, 0.01% [vol/vol] Tween 20, and 0.05 mg/ml bovine gamma globulin) was preincubated for 10 min at room temperature with 10 μl of the appropriate concentration of the inhibitor, after which 10 μl of fluorescein isothiocyanate (FITC)-T106 was added and further incubated for 30 min at room temperature. The final concentrations of protein and probe were 50 nM and 2 nM, respectively. The fluorescence polarization assay was performed in 384-well plates using a Spectramax Paradigm (Molecular Devices), using excitation and emission wavelengths of 485 nm and 535 nm, respectively. The acquisition time was 700 ms, and the read height was 1 mm. All experiments were performed in duplicate. […] In order to ensure robust fitting for some fits, r0 was kept constant at the value measured for the free tracer in buffer.

[2] = circular dichroism; details: 10 mM phosphate; pH 7.5; 25 °C; 50 uM

## CC[C@H](C)[C@H](NC(=O)[C@H](CCCCN)NC(=O)[C@H](CCC(=O)O)NC(=O)[C@H](CC(N)=O)NC(=O)[C@@H](NC(=O)[C@H](CCC(N)=O)NC(=O)[C@H](CO)NC(=O)[C@@H](NC(=O)[C@H](CO)NC(=O)[C@H](C)NC(=O)[C@H](CC(=O)O)NC(=O)[C@H](Cc1ccccc1)NC(=O)[C@H](CCC(=O)O)NC(=O)[C@H](CC(=O)O)NC(=O)[C@H](CO)NC(=O)[C@@H]1CCCN1C(=O)[C@H](Cc1ccccc1)NC(=O)[C@H](CCC(=O)O)NC(C)=O)[C@@H](C)CC)C(C)C)C(=O)N[C@@H](CC(N)=O)C(N)=O [Peptide 1] (Ac-EFPSDEFDASISQVNEKIN-NH2)
[1]
  Kd: 2.2 ± 0.5 µM

## CC[C@H](C)[C@H](NC(=O)[C@H](CCCCN)NC(=O)[C@H](CCC(=O)O)NC(=O)[C@H](CC(N)=O)NC(=O)[C@@H](NC(=O)[C@H](CCC(N)=O)NC(=O)[C@H](CO)NC(=O)[C@@H](NC(=O)[C@H](CO)NC(=O)[C@]1(C)CCCC=CCCC[C@](C)(NC(=O)[C@H](CO)NC(=O)[C@@H]2CCCN2C(=O)[C@H](Cc2ccccc2)NC(=O)[C@H](CCC(=O)O)NC(C)=O)C(=O)N[C@@H](CCC(=O)O)C(=O)N[C@@H](Cc2ccccc2)C(=O)N[C@@H](CC(=O)O)C(=O)N1)[C@@H](C)CC)C(C)C)C(=O)N[C@@H](CC(N)=O)C(N)=O [Peptide 1e] (Ac-EFPS[S5]EFD[S5]SISQVNEKIN-NH2; staple 5-9)
[2]
  helicity: 35.5%
[1]
  Kd: 15 ± 3 µM

## CC[C@H](C)[C@H](NC(=O)[C@H](Cc1ccccc1)NC(=O)[C@H](C)NC(=O)[C@H](CC(C)C)NC(=O)[C@H](CO)NC(=O)[C@H](CCC(N)=O)NC(=O)[C@H](CCC(=O)O)NC(C)=O)C(=O)N[C@@H](CCCNC(=N)N)C(=O)N[C@@H](CCCCN)C(=O)N[C@@H](CO)C(=O)N[C@@H](CC(=O)O)C(=O)N[C@@H](CCC(=O)O)C(=O)N[C@@H](CC(C)C)C(=O)N[C@@H](CC(C)C)C(=O)N[C@@H](Cc1c[nH]cn1)C(=O)N[C@@H](CC(N)=O)C(=O)N[C@H](C(N)=O)C(C)C [Peptide 3] (Ac-EQSLAFIRKSDELLHNV-NH2)
[2]
  helicity: 5.9%
[1]
  Kd: > 10.8 µM

## CC[C@H](C)[C@H](NC(=O)[C@H](Cc1ccccc1)NC(=O)[C@H](C)NC(=O)[C@H](CC(C)C)NC(=O)[C@H](CO)NC(=O)[C@H](CCC(N)=O)NC(=O)[C@H](CCC(=O)O)NC(C)=O)C(=O)N[C@@]1(C)CCCC=CCCC[C@@](C)(C(=O)N[C@@H](CC(C)C)C(=O)N[C@@H](CC(C)C)C(=O)N[C@@H](Cc2c[nH]cn2)C(=O)N[C@@H](CC(N)=O)C(=O)N[C@H](C(N)=O)C(C)C)NC(=O)[C@H](CC(=O)O)NC(=O)[C@H](CO)NC(=O)[C@H](CCCCN)NC1=O [Peptide 3b] (Ac-EQSLAFI[S5]KSD[S5]LLHNV-NH2; staple 8-12)
[2]
  helicity: 23%
[1]
  Kd: 55.9 ± 4 µM

## CC[C@H](C)[C@H](NC(=O)[C@H](CO)NC(=O)[C@H](C)NC(=O)[C@H](CC(=O)O)NC(=O)[C@H](Cc1ccccc1)NC(=O)[C@H](CCC(=O)O)NC(=O)[C@H](CC(=O)O)NC(=O)[C@H](CO)NC(=O)[C@@H]1CCCN1C(=O)[C@H](Cc1ccccc1)NC(=O)[C@H](CCC(=O)O)NC(C)=O)C(=O)N[C@]1(C)CCCCCCC=CCCC[C@@](C)(C(N)=O)NC(=O)[C@H]([C@@H](C)CC)NC(=O)[C@H](CCCCN)NC(=O)[C@H](CCC(=O)O)NC(=O)[C@H](CC(N)=O)NC(=O)[C@H](C(C)C)NC(=O)[C@H](CCC(N)=O)NC1=O [Peptide 1c] (Ac-EFPSDEFDASI[R8]QVNEKI[S5]-NH2; staple 12-19)
[2]
  helicity: 24.5%
[1]
  Kd: 221 ± 33 µM

## CC[C@H](C)[C@H](NC(=O)[C@H](Cc1ccccc1)NC(=O)[C@H](C)NC(=O)[C@H](CC(C)C)NC(=O)[C@H](CO)NC(=O)[C@]1(C)CCCC=CCCC[C@@](C)(NC(=O)[C@H](CCC(=O)O)NC(=O)[C@H](CC(N)=O)NC(=O)[C@@H](NC(=O)[C@H](CCC(N)=O)NC(=O)[C@H](CO)NC(=O)[C@@H](NC(=O)[C@H](CCC(=O)O)NC(C)=O)[C@@H](C)CC)C(C)C)C(=O)N[C@@H]([C@@H](C)CC)C(=O)N[C@@H](CC(N)=O)C(=O)N1)C(=O)N[C@@H](CCCNC(=N)N)C(N)=O [Peptide 2c] (Ac-EISQVNE[R5]IN[S5]SLAFIR-NH2; staple 8-11)
[2]
  helicity: 13.8%
[1]
  Kd: 125 ± 16 µM

## CC[C@H](C)[C@@H]1NC(=O)[C@H](Cc2ccccc2)NC(=O)[C@](C)(NC(=O)[C@H](CC(C)C)NC(=O)[C@H](CO)NC(=O)[C@H](CCC(N)=O)NC(=O)[C@H](CCC(=O)O)NC(C)=O)CCCCCCC=CCCC[C@@](C)(C(=O)N[C@@H](CC(C)C)C(=O)N[C@@H](CC(C)C)C(=O)N[C@@H](Cc2c[nH]cn2)C(=O)N[C@@H](CC(N)=O)C(=O)N[C@H](C(N)=O)C(C)C)NC(=O)[C@H](CC(=O)O)NC(=O)[C@H](CO)NC(=O)[C@H](CCCCN)NC(=O)[C@H](CCCNC(=N)N)NC1=O [Peptide 3e] (Ac-EQSL[R8]FIRKSD[S5]LLHNV-NH2; staple 5-12)
[2]
  helicity: 17.5%
[1]
  Kd: 71 ± 34 µM

## CC[C@H](C)[C@H](NC(=O)[C@H](CCCCN)NC(=O)[C@]1(C)CCCC=CCCC[C@](C)(NC(=O)[C@@H](NC(=O)[C@H](CO)NC(=O)[C@H](C)NC(=O)[C@H](CC(=O)O)NC(=O)[C@H](Cc2ccccc2)NC(=O)[C@H](CCC(=O)O)NC(=O)[C@H](CC(=O)O)NC(=O)[C@H](CO)NC(=O)[C@@H]2CCCN2C(=O)[C@H](Cc2ccccc2)NC(=O)[C@H](CCC(=O)O)NC(C)=O)[C@@H](C)CC)C(=O)N[C@@H](CCC(N)=O)C(=O)N[C@@H](C(C)C)C(=O)N[C@@H](CC(N)=O)C(=O)N1)C(=O)N[C@@H](CC(N)=O)C(N)=O [Peptide 1g] (Ac-EFPSDEFDASI[S5]QVN[S5]KIN-NH2; staple 12-16)
[2]
  helicity: 46.8%
[1]
  Kd: 191 ± 19 µM

## CC[C@H](C)[C@H](NC(=O)[C@H](CCC(=O)O)NC(C)=O)C(=O)N[C@@H](CO)C(=O)N[C@@H](CCC(N)=O)C(=O)N[C@H](C(=O)N[C@@H](CC(N)=O)C(=O)N[C@@H](CCC(=O)O)C(=O)N[C@@H](CCCCN)C(=O)N[C@H](C(=O)N[C@]1(C)CCCCCCC=CCCC[C@@](C)(C(N)=O)NC(=O)[C@H]([C@@H](C)CC)NC(=O)[C@H](Cc2ccccc2)NC(=O)[C@H](C)NC(=O)[C@H](CC(C)C)NC(=O)[C@H](CO)NC(=O)[C@H](CCC(N)=O)NC1=O)[C@@H](C)CC)C(C)C [Peptide 2f] (Ac-EISQVNEKI[R8]QSLAFI[S5]-NH2; staple 10-17)
[2]
  helicity: 15.7%
[1]
  Kd: 363 ± 238 µM

## CC[C@H](C)[C@H](NC(=O)[C@H](Cc1ccccc1)NC(=O)[C@H](C)NC(=O)[C@H](CC(C)C)NC(=O)[C@H](CO)NC(=O)[C@H](CCC(N)=O)NC(=O)[C@H](CC(N)=O)NC(=O)[C@@H](NC(=O)[C@]1(C)CCCC=CCCC[C@](C)(NC(=O)[C@H](CO)NC(=O)[C@@H](NC(=O)[C@H](CCC(=O)O)NC(C)=O)[C@@H](C)CC)C(=O)N[C@@H](C(C)C)C(=O)N[C@@H](CC(N)=O)C(=O)N[C@@H](CCC(=O)O)C(=O)N1)[C@@H](C)CC)C(=O)N[C@@H](CCCNC(=N)N)C(N)=O [Peptide 2a] (Ac-EIS[S5]VNE[S5]INQSLAFIR-NH2; staple 4-8)
[2]
  helicity: 5.2%
[1]
  Kd: 405 ± 121 µM

## CC[C@H](C)[C@H](NC(=O)[C@H](Cc1ccccc1)NC(=O)[C@H](C)NC(=O)[C@H](CC(C)C)NC(=O)[C@H](CO)NC(=O)[C@H](CCC(N)=O)NC(=O)[C@H](CCC(=O)O)NC(C)=O)C(=O)N[C@@H](CCCNC(=N)N)C(=O)N[C@@H](CCCCN)C(=O)N[C@@H](CO)C(=O)N[C@@H](CC(=O)O)C(=O)N[C@@]1(C)CCCC=CCCC[C@@](C)(C(=O)N[C@H](C(N)=O)C(C)C)NC(=O)[C@H](Cc2c[nH]cn2)NC(=O)[C@H](CC(C)C)NC(=O)[C@H](CC(C)C)NC1=O [Peptide 3c] (Ac-EQSLAFIRKSD[S5]LLH[S5]V-NH2; staple 12-16)
[2]
  helicity: 18.7%
[1]
  Kd: > 216 µM
